Each structure is given as a SMILES string. The source made the active and inactive calls. The calls are words filed in the database; no cut-off is given here.

Data on eleven molecules can be found in ChEMBL document CHEMBL1154028, “Pyrazole acids as niacin receptor agonists for the treatment of dyslipidemia” (Bioorg Med Chem Lett, 2009).

Series [1] concerns Rattus norvegicus. As to the kind of experiment: Decrease in blood free fatty acid level in po dosed rat.
The test system of series [2] is Rattus norvegicus. The experiment in a line: Decrease in blood free fatty acid level in rat at 3 mg/kg, po. In kind it is functional. On the set-up: scale not given: the % may be the effect or the level left.
For series [3], the system named is Rattus norvegicus. As to the kind of experiment: Toxicity in rat assessed as changes in rat ear blood perfusion upto 30 mg/kg, sc. In kind it is organism-based. Further details: dose 30 mg/kg, route subcutaneous. The note with it: in vivo.
Series [4] has as its system Blood. The experiment in a line: Drug level in rat blood at 30 mg/kg, sc. It is filed as ADME, organism-based. On the set-up: dose 30 mg/kg, route subcutaneous. As to conditions: in vivo, read-out: Drug uptake.
In series [5] the target is Hydroxycarboxylic acid receptor 2 (Homo sapiens) (UniProt Q8TDS4). As to the kind of experiment: Displacement of [3H]niacin from human niacin receptor expressed in […] cells at 25 uM in absence of 5% human serum. In kind it is cell-based. A general note: Loss of bound radioactivity is the signal in a displacement assay; it reports binding, not function.
Chain of Hydroxycarboxylic acid receptor 2 (Homo sapiens) (Q8TDS4 whole entry): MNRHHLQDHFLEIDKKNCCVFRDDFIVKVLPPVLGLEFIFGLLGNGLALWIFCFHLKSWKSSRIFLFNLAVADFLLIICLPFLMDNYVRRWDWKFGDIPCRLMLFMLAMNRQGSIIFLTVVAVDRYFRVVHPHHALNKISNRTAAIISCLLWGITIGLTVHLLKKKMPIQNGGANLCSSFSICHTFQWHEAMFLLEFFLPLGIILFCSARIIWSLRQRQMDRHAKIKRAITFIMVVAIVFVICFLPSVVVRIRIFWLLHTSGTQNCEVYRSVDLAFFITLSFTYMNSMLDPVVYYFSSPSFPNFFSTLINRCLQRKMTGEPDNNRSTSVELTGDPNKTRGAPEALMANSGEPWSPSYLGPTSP
The target is the same in series [6]. As to the kind of experiment: Displacement of [3H]niacin from human niacin receptor expressed in […] cells at 25 uM in presence of 5% human serum. It is filed as cell-based.
Series [7] has as its system Rattus norvegicus. As to the kind of experiment: Decrease in blood free fatty acid level in rat at 100 mg/kg, po after 20 mins. Further details: dose 100 mg/kg. In kind it is functional, organism-based.
Series [8] in a line: Plasma clearance in mouse at 1 mg/kg, iv or 2 mg/kg, po. It is filed as ADME, organism-based.
The nature of series [9]: Volume of distribution at steady state in mouse at 1 mg/kg, iv or 2 mg/kg, po. It is filed as ADME, organism-based. The note with it: in vivo, read-out: Vdss.
The nature of series [10]: Half life in mouse at 1 mg/kg, iv or 2 mg/kg, po. It is filed as ADME, organism-based. The note with it: in vivo.
A short description of series [11]: Cmax in mouse at 1 mg/kg, iv or 2 mg/kg, po. In kind it is ADME, organism-based. As to conditions: in vivo.
Series [12] can be described thus: Oral bioavailability in mouse at 2 mg/kg. In kind it is ADME, organism-based. As to conditions: in vivo.

One may read the EC50 as the concentration needed to bring the measured effect to its halfway point. `Br.O=C(O)c1n[nH]c2c1CC(c1cc(F)ccc1F)CC2` (centres undefined) returned a half-maximal effective concentration (EC50) in series [1] of 3000 nM. Besides, the Activity in series [2] is given as 50%; in [3], “Non-toxic”. The concentration in series [4] was 135 µM.
On to `Fc1ncccc1C1CCC2=C(C1)C(=C1N=NN=N1)N=N2` (centres undefined), for which the Activity worked out at 40% in [5] and 75% in series [6].
Regarding `O=C(O)c1n[nH]c2c1CC(c1cc(F)ccc1F)CC2` (centres undefined), the Activity in series [5] amounted to 56%; in series [6] it was 84%. For the same molecule, in series [7], the outcome was Active.
Usually half-life stands for the time in which the quantity being followed falls by half. As usually defined, the Cmax is the peak of the concentration-time curve. For orientation: bioavailability means dose-corrected exposure relative to a reference, in per cent. For the molecule `O=C(O)c1n[nH]c2c1CC(c1cccnc1F)CC2` (racemic), the Activity in series [5] turned out to be 90%; in [6], 88%. Moreover, in series [8], the clearance came out at 21 mL/min/kg. In addition, in [9], the Vd amounted to 2.4 L/kg. This molecule also gave a half-life in series [10] of 2.6 h. Also, the peak level in [11] (Cmax) was 2.3 µM. For the same molecule, the bioavailability in series [12] was found to be 47%.
On to `O=C(O)c1n[nH]c2c1CC(c1cc(F)ccc1F)CC2` (racemic), for which the clearance in series [8] is 8.3 mL/min/kg. For the same molecule, in series [9], the Vd is 1.4 L/kg. Further, in series [10], the half-life was 2.9 h. For the same molecule, the Cmax in series [11] is 3.3 µM. In addition, the bioavailability in series [12] worked out at 53%.
As to `Fc1ccc(F)c(C2CCc3[nH]nc(-c4nnn[nH]4)c3C2)c1` (racemic), the Activity in series [6] came to 17%.
Take `O=C(O)c1n[nH]c2c1CC(c1ccccc1)CC2` (racemic): the Activity in series [5] amounted to 19%; in series [6], 35%.
In the case of `O=C(O)c1n[nH]c2c1CC(c1ccccc1Cl)CC2` (racemic), in series [6], the Activity came out at 20%.
The same measure, in the same setting: next, `O=C(O)c1n[nH]c2c1CC(c1ccccc1F)CC2` (racemic): 18%.
Consider `O=C(O)c1n[nH]c2c1CC(c1ccnc(F)c1)CC2` (racemic), for which the Activity in series [5] amounted to 60%; in [6] it was 69%.
In series [5], `O=C(O)c1n[nH]c2c1CCC(c1ccccc1)C2` (racemic) showed an Activity of 63%.
